Data: patent US20250134878A1, “COMBINATION OF CHEK1 INHIBITOR AND TOP1 INHIBITOR FOR TREATING COLORECTAL CANCER” (Genome Research Limited, priority 2022, published 2025)
Where “and” joins values, the source holds several entries; their conditions need not be identical. Equal entries are not always repeated. Where two headings read alike, the source gives them in different places.

Assays:
[1] = tested on: colon (n=45) cancer cell lines; assay: anchored 2x7 combination screen, viability by CellTiter-Glo after 72 h, synergy over Bliss
Protocol: To screen efficiently, the inventors used a 2×7 concentration matrix, or “anchored” approach. The inventors screened each anchor compound at two optimised concentrations and a discontinuous 1,000-fold (7-point) dose-response curve of the library compound. Viability was read out after 72 h of drug treatment using CellTiter-Glo and drug responses for single agent and combination responses were fitted.
The synergy and activity rate also subset to MSS (n=30) and MSI (n=15), or KRAS mut (n=24) and KRAS wt (n=21) cell lines.
Activity in MSI (n=15) and MSS (n=30) cell lines was compared (FIG. 1a). KRAS mutant (n=24) cell lines were investigated (n=8, TP53 wild type; n=16 TP53 mutant) (FIG. 1b). […] Plotted are averaged combination responses. Box and whisker plots show the median and interquartile range. A two-sided Welch's t-test was performed (*=p≤0.05, **=p≤0.01, ***=p≤0.001, ****=p≤0.0001).
Viability was read out after 72 h of drug treatment using CellTiter-Glo and drug responses for single agent and combination responses were fitted.

[2] = tested on: SW620, SW837, SNU-81 or LS-1034 cells; assay: CHEK specificity: camptothecin anchor plus CHEK inhibitor libraries, CellTiter-Glo viability after 96 h; format: cell-based; conditions: in combination with camptothecin (anchor, 0.025 µM), 4 cell lines
Protocol: After 96 h of drug treatment viability was measured with CellTiter-Glo® 2.0 (CTG; Promega). Drug response curves were fitted and combination response metrics ΔEmax and ΔIC50 calculated by comparing the observed combination response with the expected (Bliss) combination response. The higher the ΔEmax and ΔIC50, the stronger the combination response. SW620, SW837, SNU-81 and LS-1034 are all MSS and KRAS-TP53 double mutant colon cancer cell lines.

CHEK1 = target: T1, CHEK1 (Homo sapiens, UniProt O14757); conditions: assay format not stated; read-out: IC50 (CHEK1 inhibitor); cited from earlier work
T1 sequence (O14757 1-476): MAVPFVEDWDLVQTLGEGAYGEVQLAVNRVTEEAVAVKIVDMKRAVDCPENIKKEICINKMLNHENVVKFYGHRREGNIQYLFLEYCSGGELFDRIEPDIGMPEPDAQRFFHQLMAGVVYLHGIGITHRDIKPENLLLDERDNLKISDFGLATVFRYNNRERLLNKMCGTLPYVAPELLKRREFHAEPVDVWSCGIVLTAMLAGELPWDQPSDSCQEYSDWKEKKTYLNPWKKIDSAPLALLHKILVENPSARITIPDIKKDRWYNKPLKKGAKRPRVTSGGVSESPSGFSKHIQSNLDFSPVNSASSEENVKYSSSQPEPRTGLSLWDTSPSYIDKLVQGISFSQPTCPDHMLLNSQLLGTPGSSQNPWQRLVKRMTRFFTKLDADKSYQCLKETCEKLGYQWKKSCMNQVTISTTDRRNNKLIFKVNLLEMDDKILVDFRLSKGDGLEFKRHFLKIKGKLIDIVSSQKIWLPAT

LoVo cells = conditions: cited from earlier work
HT-29 cells = conditions: cited from earlier work
[3] = tested on: colon cancer cell lines (CL-11, SNU-81 and SW837); assay: 7x7 matrix combination screen with SN-38, CellTiter-Glo 72 h, Bliss window and HSA window; format: cell-based; conditions: MSS and KRAS/TP53 double mutant cell lines
Protocol: Viability was measured after 72 h of drug treatment using CellTiter-Glo reagent. Single-agent and combination viability measurements were fitted per cell line and multiple parameters derived including single agent values and a range of synergy scores. […] The “Bliss window” was reported as the highest mean Bliss excess value measured across the 25 possible 3×3 submatrices, or ‘windows’, across the 7×7 dose matrix. […] The “HSA window” was reported as the highest mean HSA excess value measured across the 25 possible 3×3 submatrices, or ‘windows’, across the 7×7 dose matrix.

SNU-81 cells = assay: SN-38 dose response after siRNA transfection, viability (CTG); format: cell-based; conditions: for IC50: SN-38 added after 30 h, viability 72 h later
Protocol: (§1) For siRNA experiments, SW837 and SNU-81 cells (8,000 and 16,000 cells per well, respectively) were reverse transfected with siRNAs of a non-targeting pool as negative control (siNT; Dharmacon, D-001810-10-5), polo-like kinase 1 (PLK1) pool as positive control (Dharmacon, L-003290-00-0010), CHEK1 pool (Dharmacon, L-003255-00-0005) or four individual CHEK1 siRNAs (LQ-003255-00-0005), and CHEK2 pool (Dharmacon, L-003256-00-0005) using lipofectamine RNAiMax (Thermofisher). After 30 h, 0.025 µM or a dose range of 0.001-9 µM SN-38 or DMSO were added and viability was measured 72 h later with CTG. Signal was normalised to siNT+DMSO controls. […] FIGS. 4a and 4c confirm that the effect of the TOP1+CHEK combination is primarily mediated through inhibition of CHEK1.
(§2) SW837 and SNU-81 cells (8,000 and 16,000 cells per well, respectively) were reverse transfected with siRNAs of a non-targeting pool as negative control (siNT; Dharmacon, D-001810-10-5), CHEK1 pool (Dharmacon, L-003255-00-0005) or CHEK2 pool (Dharmacon, L-003256-00-0005) using lipofectamine RNAiMax (Thermofisher). After 30 h, a dose range of 0.001-9 µM SN-38 or DMSO were added and viability was measured 72 h later with CTG. Signal was normalised to siNT+DMSO controls. Mean±SD of three independent replicates.

SW837 cells = assay: as above; format: cell-based; conditions: for IC50: SN-38 added after 30 h, viability 72 h later
Protocol: as §1, §2

[4] = target: ataxia telangiectasia and Rad3 related (ATR) kinase (Homo sapiens, UniProt Q13535); conditions: cited from earlier work
[5] = tested on: ATR-driven phosphorylated CHEK1 (P-CHEK1) phosphorylation; conditions: cell-free assay; cited from earlier work
[6] = Phase 1 clinical trials; cited from earlier work

Chain of ataxia telangiectasia and Rad3 related (ATR) kinase (Q13535 whole entry): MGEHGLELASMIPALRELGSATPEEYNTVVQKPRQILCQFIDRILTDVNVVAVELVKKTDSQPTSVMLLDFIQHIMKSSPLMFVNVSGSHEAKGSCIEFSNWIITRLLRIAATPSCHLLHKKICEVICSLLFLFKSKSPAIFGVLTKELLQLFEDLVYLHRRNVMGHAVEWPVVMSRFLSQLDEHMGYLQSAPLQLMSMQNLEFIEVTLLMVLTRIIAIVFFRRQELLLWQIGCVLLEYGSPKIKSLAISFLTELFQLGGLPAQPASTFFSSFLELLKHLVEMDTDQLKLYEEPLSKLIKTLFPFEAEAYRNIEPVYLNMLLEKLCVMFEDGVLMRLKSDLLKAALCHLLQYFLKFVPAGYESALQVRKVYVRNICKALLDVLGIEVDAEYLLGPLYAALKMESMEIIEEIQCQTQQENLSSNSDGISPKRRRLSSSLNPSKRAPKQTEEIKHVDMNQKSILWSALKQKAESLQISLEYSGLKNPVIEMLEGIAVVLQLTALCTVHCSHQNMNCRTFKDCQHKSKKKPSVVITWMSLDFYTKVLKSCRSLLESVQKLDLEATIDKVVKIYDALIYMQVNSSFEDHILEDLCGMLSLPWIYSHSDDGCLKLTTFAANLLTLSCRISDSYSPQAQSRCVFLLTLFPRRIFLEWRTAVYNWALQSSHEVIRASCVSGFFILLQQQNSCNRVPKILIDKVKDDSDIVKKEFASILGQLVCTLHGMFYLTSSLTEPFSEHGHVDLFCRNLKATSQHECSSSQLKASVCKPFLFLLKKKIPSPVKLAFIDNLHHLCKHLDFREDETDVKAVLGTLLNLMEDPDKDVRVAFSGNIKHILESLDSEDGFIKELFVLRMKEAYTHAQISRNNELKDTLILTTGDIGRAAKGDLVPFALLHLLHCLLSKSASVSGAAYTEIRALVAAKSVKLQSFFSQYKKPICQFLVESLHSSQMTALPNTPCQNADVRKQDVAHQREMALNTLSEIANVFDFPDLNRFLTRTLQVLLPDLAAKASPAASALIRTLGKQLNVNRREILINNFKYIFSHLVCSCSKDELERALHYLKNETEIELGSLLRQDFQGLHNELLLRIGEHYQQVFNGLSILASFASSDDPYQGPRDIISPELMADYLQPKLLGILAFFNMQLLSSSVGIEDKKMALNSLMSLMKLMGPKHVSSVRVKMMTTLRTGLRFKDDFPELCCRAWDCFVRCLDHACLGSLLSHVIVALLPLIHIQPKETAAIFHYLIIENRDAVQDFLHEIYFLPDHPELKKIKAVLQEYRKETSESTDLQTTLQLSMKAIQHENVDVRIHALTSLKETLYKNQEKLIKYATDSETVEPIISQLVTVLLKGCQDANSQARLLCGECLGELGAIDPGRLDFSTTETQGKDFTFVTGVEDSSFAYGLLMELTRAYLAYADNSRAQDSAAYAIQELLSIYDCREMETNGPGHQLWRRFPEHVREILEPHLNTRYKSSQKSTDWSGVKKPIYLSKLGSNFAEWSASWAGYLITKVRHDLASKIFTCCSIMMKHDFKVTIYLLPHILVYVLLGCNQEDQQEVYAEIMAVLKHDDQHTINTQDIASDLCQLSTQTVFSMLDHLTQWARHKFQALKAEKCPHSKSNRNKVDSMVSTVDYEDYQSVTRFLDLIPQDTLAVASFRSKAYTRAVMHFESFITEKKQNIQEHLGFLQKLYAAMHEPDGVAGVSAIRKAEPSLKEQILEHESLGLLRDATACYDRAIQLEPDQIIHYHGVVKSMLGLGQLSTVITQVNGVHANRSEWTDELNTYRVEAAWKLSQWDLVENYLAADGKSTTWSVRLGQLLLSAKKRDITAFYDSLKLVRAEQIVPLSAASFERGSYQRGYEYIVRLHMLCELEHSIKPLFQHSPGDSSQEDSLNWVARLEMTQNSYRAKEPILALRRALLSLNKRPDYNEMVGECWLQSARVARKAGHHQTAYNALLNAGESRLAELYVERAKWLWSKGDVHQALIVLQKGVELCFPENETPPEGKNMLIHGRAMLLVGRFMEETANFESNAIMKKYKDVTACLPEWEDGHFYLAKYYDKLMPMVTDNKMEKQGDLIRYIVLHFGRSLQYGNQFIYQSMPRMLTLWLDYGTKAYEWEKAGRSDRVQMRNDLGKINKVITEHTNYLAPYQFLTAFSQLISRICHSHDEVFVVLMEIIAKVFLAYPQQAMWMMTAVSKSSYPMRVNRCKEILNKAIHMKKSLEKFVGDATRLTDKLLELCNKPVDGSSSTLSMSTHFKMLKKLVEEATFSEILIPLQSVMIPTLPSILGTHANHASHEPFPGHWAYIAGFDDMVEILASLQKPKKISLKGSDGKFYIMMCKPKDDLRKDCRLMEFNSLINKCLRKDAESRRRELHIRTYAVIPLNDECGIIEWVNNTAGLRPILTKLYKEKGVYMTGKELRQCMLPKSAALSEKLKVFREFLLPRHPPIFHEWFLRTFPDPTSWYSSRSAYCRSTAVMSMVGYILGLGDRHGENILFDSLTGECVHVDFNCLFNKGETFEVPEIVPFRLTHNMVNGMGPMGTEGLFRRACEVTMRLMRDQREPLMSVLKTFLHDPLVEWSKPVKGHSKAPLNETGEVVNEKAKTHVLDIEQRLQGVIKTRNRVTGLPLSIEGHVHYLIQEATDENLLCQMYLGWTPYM
Chain of ataxia telangiectasia and Rad3 related (ATR) kinase (Q8WXE1 whole entry partner): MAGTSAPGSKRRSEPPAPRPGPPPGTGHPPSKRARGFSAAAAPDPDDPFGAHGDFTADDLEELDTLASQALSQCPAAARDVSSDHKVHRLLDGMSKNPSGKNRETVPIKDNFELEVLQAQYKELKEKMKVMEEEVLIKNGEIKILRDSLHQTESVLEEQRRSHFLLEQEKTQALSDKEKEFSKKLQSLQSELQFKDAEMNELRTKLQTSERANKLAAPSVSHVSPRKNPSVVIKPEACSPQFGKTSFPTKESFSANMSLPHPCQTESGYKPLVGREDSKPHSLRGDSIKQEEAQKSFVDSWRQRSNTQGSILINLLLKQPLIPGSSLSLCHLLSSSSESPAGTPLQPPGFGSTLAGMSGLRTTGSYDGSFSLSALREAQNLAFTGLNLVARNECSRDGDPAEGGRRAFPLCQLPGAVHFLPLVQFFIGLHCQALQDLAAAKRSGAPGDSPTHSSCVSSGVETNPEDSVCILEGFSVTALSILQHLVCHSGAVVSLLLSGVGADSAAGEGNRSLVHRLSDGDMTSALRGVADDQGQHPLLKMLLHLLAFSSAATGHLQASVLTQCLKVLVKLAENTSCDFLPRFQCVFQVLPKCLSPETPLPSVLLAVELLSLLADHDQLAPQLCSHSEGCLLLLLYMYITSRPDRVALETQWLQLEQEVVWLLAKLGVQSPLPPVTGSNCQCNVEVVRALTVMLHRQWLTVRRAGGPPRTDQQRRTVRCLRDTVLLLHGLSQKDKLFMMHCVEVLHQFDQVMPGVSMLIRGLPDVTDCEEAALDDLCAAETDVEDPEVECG

For `NC(=O)Nc1cc(-c2cccc(F)c2)sc1C(=O)N[C@H]1CCCNC1` [AZD7762, (S)-5-(3-Fluorophenyl)-N-(piperidin-3-yl)-3-ureidothiophene-2-carboxamide], the “synergy and activity rate in combination with 5-FU (DNA antimetab.)” value ([1]; AZD7762 = Anchor) was 26%, the “synergy and activity rate in combination with Oxaliplatin (DNA alkyl.)” value ([1]; AZD7762 = Anchor) was 0% and the “synergy and activity rate in combination with Vinorelbine (Microtub.)” value ([1]; AZD7762 = Anchor) was 0%. For the same molecule, the “synergy and activity rate in combination with 5-FU (DNA antimetab.)” value ([1]; AZD7762 = Library) was 28%, the “synergy and activity rate in combination with Oxaliplatin (DNA alkyl.)” value ([1]; AZD7762 = Library) was 2% and the “synergy and activity rate in combination with Vinorelbine (Microtub.)” value ([1]; AZD7762 = Library) was 4%.
For `COc1cc2nc(-c3cc(F)ccc3O)nc(N[C@@H]3CNC[C@H]3C(C)(C)O)c2cc1OC` [CCT241533], the “median ΔEmax (shift in efficacy over Bliss)” value [2] was “did not”.
For `N[C@@H]1CCCN(c2c(Br)cnc3[nH]cc(NC(=O)C4CC4)c23)C1` [GDC-0575, N-[4-[(3R)-3-amino-1-piperidyl]-5-bromo-1H-pyrrolo[2,3-b]pyridin-3-yl]cyclopropanecarboxamide], the IC50 (CHEK1) is given as 1.2 nM.
For `CCc1c2c(nc3ccc(OC(=O)N4CCC(N5CCCCC5)CC4)cc13)-c1cc3c(c(=O)n1C2)COC(=O)[C@]3(O)CC` [Irinotecan, [(19S)-10,19-diethyl-19-hydroxy-14,18-dioxo-17-oxa-3,13-diazapentacyclo[11.8.0.0^2.11.0^4.9.0^15,20]henicosa-1 (21),2,4(9),5,7,10,15(20)-heptaen-7-yl] 4-(1-piperidyl) piperidine-1-carboxylate], the IC50 (LoVo cells) is given as 15800 nM and the IC50 (HT-29 cells) is given as 5170 nM.
In the case of `Cn1cc(-c2cnn3c(N)c(Br)c([C@@H]4CCCNC4)nc23)cn1` [MK-8776, 6-bromo-3-(1-methyl-1H-pyrazol-4-yl)-5-[(3R)-piperidin-3-yl]pyrazolo[1,5-a]pyrimidin-7-amine], the “synergy (Bliss window and HSA window) in combination with SN-38” value (“synergy (Bliss window and HSA window)” for short) [3] is reported as “high”.
In the case of `COc1cccc(OCCCN)c1-c1cc(Nc2cnc(C#N)cn2)n[nH]1` [Prexasertib, 5-[[5-[2-(3-aminopropoxy)-6-methoxyphenyl]-1H-pyrazol-3-yl]amino]pyrazine-2-carbonitrile], the “synergy (Bliss window and HSA window)” value [3] is reported as “high”.
In the case of `C[C@H](CN(C)C)Oc1nc(Nc2cc3cccc(Cl)c3cn2)cnc1C#N` [SAR-020106, 5-(8-chloroisoquinolin-3-ylamino)-3-((R)-1-(dimethylamino)propan-2-yloxy) pyrazine-2-carbonitrile], the “synergy (Bliss window and HSA window)” value [3] is reported as “high”.
For `CCc1c2c(nc3ccc(O)cc13)-c1cc3c(c(=O)n1C2)COC(=O)[C@]3(O)CC` [SN-38, (19S)-10,19-diethyl-7,19-dihydroxy-17-oxa-3,13-diazapentacyclo[11.8.0.0^2.11.0^4.9.0^15,20]henicosa-1(21),2,4(9),5,7,10,15(20)-heptaene-14,18-dione], the IC50 (SNU-81 cells; CHEK1 siRNA pool, read-out: IC50 in SNU-81, siCHEK1) was 84.4 nM and 84 nM, the IC50 (SNU-81 cells; CHEK2 siRNA pool, read-out: IC50 in SNU-81, siCHEK2) was 715 nM and the “shift in IC50 of SN-38 on addition of siCHEK1” value (SNU-81 cells; SNU-81, siCHEK1 vs siNT) was 7.2 fold. The IC50 (SNU-81 cells; non-targeting siRNA pool, read-out: IC50 in SNU-81, siNT) was 611 nM, the IC50 (SW837 cells; CHEK1 siRNA pool, read-out: IC50 in SW837, siCHEK1) was 0.7 nM and the IC50 (SW837 cells; CHEK2 siRNA pool, read-out: IC50 in SW837, siCHEK2) was 67 nM. For the same molecule, the IC50 (SW837 cells; Homo sapiens, SW837, CHEK1 siRNA pool, read-out: IC50 in SW837, siCHEK1) was 0.69 nM, the IC50 (SW837 cells; Homo sapiens, SW837, CHEK2 siRNA pool, read-out: IC50 in SW837, siCHEK2) was 66.6 nM and the IC50 (SW837 cells; Homo sapiens, SW837, non-targeting siRNA pool, read-out: IC50 in SW837, siNT) was 84.4 nM. For the same molecule, the “shift in IC50 of SN-38 on addition of siCHEK1” value (SW837 cells; SW837, siCHEK1 vs siNT) was 120 fold and the IC50 (SW837 cells; non-targeting siRNA pool, read-out: IC50 in SW837, siNT) was 84 nM.
For `Nc1nn2cc(F)cnc2c1C(=O)Nc1cncc(F)c1N1CCC(C(=O)N2CCN(C3COC3)CC2)CC1` [VX-803, 2-amino-6-fluoro-N-[5-fluoro-4-[4-[4-(oxetan-3-yl)piperazine-1-carbonyl]-1-piperidyl]-3-pyridyl]pyrazolo[1,5-a]pyrimidine-3-carboxamide], the “Ki ATR kinase” value [4] is given as < 0.15 nM and the IC50 [5] is given as 8 nM.
For `Cc1cnc(NC(=O)Nc2cc(Br)c(C)cc2OC[C@@H]2CNCCO2)cn1` [rabusertib, 1-[5-bromo-4-methyl-2-[[(2S)-morpholin-2-yl]methoxy]phenyl]-3-(5-methylpyrazin-2-yl) urea], the “synergy (Bliss window and HSA window)” value [3] is given as “high” and the safety profile [6] is given as “acceptable safety profile”.
